According to publication PMC10350924, “Design, Synthesis, and Pharmacological Characterization of a Potent Soluble Epoxide Hydrolase Inhibitor for the Treatment of Acute Pancreatitis” (Journal of Medicinal Chemistry, 2023):

Tests used:
[1] = In vivo pharmacokinetic profile in mice after i.p. administration; conditions: mouse, plasma, ip, 10 mg/kg i.p., single dose
Protocol: For analysis of plasma levels of 28, mice (6 per group) received 10 mg/kg i.p. injection in a volume of 500 μL of DMSO 2% in saline. After selected time points, the mice were sacrificed (CO2 atmosphere) and blood (approximately 0.7–0.9 mL) was collected by intracardiac puncture using citrate as an anticoagulant. Then, plasma was obtained by centrifugation at 800g at 4 °C for 10 min and immediately frozen at −80 °C. The analyses were performed using a Shimadzu Nexera UHPLC (Kyoto, Japan) consisting of two LC-30AD pumps, a SIL-30AC autosampler, a CTO-20AC column oven, and a CBM-20A controller. Chromatographic conditions have previously been reported in the Chemical and Metabolic Stability section. The chromatographic system was coupled online to a triple quadrupole LCMS-8050 (Shimadzu) equipped with an electrospray ionization (ESI) source operating in positive mode. Quantification was performed in scheduled multiple reaction monitoring (MRM) mode. The transitions (Table S2) were m/z 456 > 149.2 (quantifier ion), 456 > 166.2 (qualifier ion) for compound 28, and m/z 458 > 149.2 (quantifier ion), 458 > 166.2 (qualifier ion) for IS. Dwell time, interface temperature, DL temperature, and heat block temperature were set to 100 ms, 300, 250, and 350 °C, respectively. Nebulizing gas, heating gas, and drying gas flow were set to 3, 10, and 10 L min^–1, respectively. All of the data was collected in the centroid mode and acquired and processed using Lab Solution workstation software. Stock solutions of 28 and IS were prepared in DMSO (1 mg mL^–1). The standards of 28 were prepared by dilution of the stock solution with methanol to obtain the working stock solutions in plasma of the following concentrations: 0.2, 0.5, 1, 5, 10, 20, and 50 ng mL^–1 for calibration curve. Calibration standards were prepared by spiking 100 μL of mouse plasma with a suitable working solution of 28 and IS to obtain a final concentration of 5 ng mL^–1 of the IS in each sample. For the extraction of 28 from mouse plasma, the method of protein precipitation was employed. Briefly, the frozen plasma samples were thawed at room temperature. 200 μL of ice-cold acetonitrile containing IS was added to 100 μL of plasma. The extraction was performed by vortex mixing for 5 min, followed by centrifugation for 10 min at 14,600 rpm at 25 °C. The supernatants were collected, filtered by […] RC-membranes, and then injected in UHPLC-MS/MS. […] The maximum concentration (Cmax) and time to reach Cmax (Tmax) were determined from the plasma concentration versus time data. The area under the plasma concentration–time curve from time 0 to infinity concentration (AUC0–∞) was determined using the linear trapezoidal method. The elimination half-life (T1/2) was calculated using ln(2)/ke.

[2] = system: cerulein-induced acute pancreatitis; assay: Cerulein-induced acute pancreatitis in mice; type: in vivo
Protocol: Male CD-1 mice (33–39 g, 8 weeks, Charles River Laboratories; Calco, Italy) were fed with standard rodent chow and water and acclimated for 4 days at a 12 h light and 12 h dark schedule in a constant air-conditioned environment (21 ± 2 °C). The mice were randomly assigned to groups, and experiments were carried out during the light phase. Experimental procedures were conducted in conformity with Italian (D.L. 26/2014) and European (directive 2010/63/EU) regulations on the protection of animals used for scientific purposes and approved by the Italian Ministry. Acute pancreatitis (AP) was induced in mice by intraperitoneal (i.p.) injections of cerulein (50 μg/kg) hourly (5 times).[56] The groups were: (a) Sham group which received saline i.p. hourly (×5); […] The mice were killed 6 h after the first cerulein injection. Blood samples were obtained by direct intracardiac puncture. Pancreases and lungs were removed immediately, frozen, and stored at −80 °C until assayed. Portions of these organs were also fixed in formaldehyde for histological and immunohistochemical examination. Pancreas and lung sections (6 μm) were stained for hematoxylin & eosin (H&E). Evaluation of pancreas edema and inflammation signs were performed with a three-point scoring system. […] Analysis was performed in a blinded manner. Evaluation of lung edema and inflammatory infiltration was performed with three-point scoring system: 0, absent; 1, mild; 2, moderate; 3, severe. […] Tissue sections were then incubated with normal goat serum (Vector Laboratories, Newark, California) for 20 min to reduce nonspecific antibody interactions. Sections were incubated with primary antibody diluted in 0.01 M PBS, 2.5% normal serum (anti-Neutrophils rat monoclonal antibody, dilution 1:100, Abcam) for 30 min. After rinsing with PBS 0.01 M for 5 min, slides were incubated with biotinylated goat anti-rat IgG (Vector Laboratories, Newark, California), diluted 1:200, for 30 min. After rinsing with PBS 0.01 M for 5 min, slides were incubated with VECTASTAIN ABC Reagent (Vector Laboratories, Newark, California) for 30 min. Color development was performed using […] 3,3′-diaminobenzidine solution (Sigma-Aldrich, Milan, Italy), and sections were analyzed using Leica Microsystem with a magnification of 20x. Semiquantitative determination of protein expression was obtained with ImageJ/Fiji software. Liver injury was assessed by measuring the rise in plasma levels of alanine aminotransferase (ALT, a specific marker for hepatic parenchymal injury) and aspartate aminotransferase (AST, a nonspecific marker for hepatic injury) 6 h after cerulein injection by a clinical laboratory. Results are expressed in international units per milliliter.

[3] = 10 mg/kg i.p. 0.5 and 2.5 h after first cerulein injection, 6 h
[4] = 10 mg/kg i.p., 6 h after first cerulein injection

With `CC(C)c1ccc(Cn2ccc3cc(NC(=O)NCC45C[C@H]6C[C@@H](C4)C[C@@H](C5)C6)ccc32)cc1` [Compound 28, 1-(((3R,5R,7R)-Adamantan-1-yl)methyl)-3-(1-(4-isopropylbenzyl)-1H-indol-5-yl)urea] the AUC(0-inf) at 24 h [1] was 29.9 ng·h/mL, the Cmax at 24 h [1] was 4.17 ng/mL and the Tmax at 24 h [1] was 2 h. For the same compound, the half-life at 24 h [1] was 456 min, the “lung inflammation and neutrophilia” value [2, 3] was “reduced” and the “pancreatic injury (edema, cell infiltration, neutrophil numbers)” value [2, 3] was “protective effect”. For the same compound, the “serum ALT levels” value [2, 4] was “decreased” and the “serum AST levels” value [2, 4] was “decreased”.
